Where a name gives a salt, the structure may show the parent alone.
Tested on: IL-6, GM-CSF, IL-15, IL-2, IL-12, IL-13, TNF-α, and INF-γ

**Q.** With `C[C@@H]1CCN(C(=O)CC#N)C[C@@H]1N(C)c1ncnc2[nH]ccc12` [tofacitinib citrate] as the compound, how does the “IL-6 expression in plasma” value (PO or IC administration, 1 h and 3 h post-treatment) read?
**A.** inhibition of IL-6 expression

**Q.** And the “inhibition of IL-6 expression in colon tissue” value (all IC treated groups and high dose PO group (45 mg/kg))?
**A.** sustained through 24 h post-dose

**Q.** And the “IL-6 inhibition in colon tissue” value (low dose PO group (15 mg/kg), by 12 h post-dose)?
**A.** Recovery from IL-6 inhibition

Source: patent US20250325662A1, “METHODS OF TREATING AND PREDICTING NON-RESPONSE TO ANTI-TNF TREATMENT IN SUBJECTS WITH GASTROINTESTINAL TRACT DISEASES” (BT Bidco, Inc., priority 2020, published 2025)
